Measurements published in ChEMBL document CHEMBL1131891, “Antiplatelet actions of aporphinoids from Formosan plants” (Bioorg Med Chem Lett, 1999).
pIC50: −log10 of the molar value.

Assays:
Type in all cases: functional
[1] = species: Oryctolagus cuniculus; assay: Effect on platelet aggregation induced by adenosine 5'-diphosphate (ADP) in washed rabbit platelet
[2] = species: Oryctolagus cuniculus; assay: Effect on platelet aggregation induced by arachidonic acid(AA) in washed rabbit platelet
[3] = species: Oryctolagus cuniculus; assay: Effect on platelet aggregation induced by collagen in washed rabbit platelet
[4] = species: Oryctolagus cuniculus; assay: Effect on platelet aggregation induced by platelet activating factor(PAF) in washed rabbit platelet
[5] = species: Oryctolagus cuniculus; assay: Inhibitory activity against platelet aggregation induced by arachidonic acid(AA) in washed rabbit platelet
[6] = species: Oryctolagus cuniculus; assay: Inhibitory activity against platelet aggregation induced by collagen in washed rabbit platelet
[7] = species: Oryctolagus cuniculus; assay: Inhibitory activity against platelet aggregation induced by platelet activating factor(PAF) in washed rabbit platelet

Row | SMILES | Aggregation [1] [%] | Aggregation [2] [%] | Aggregation [3] [%] | Aggregation [4] [%] | pIC50 ([5]; read-out: IC50) | pIC50 [5] | pIC50 [6] | pIC50 [7] | pIC50 ([6]; read-out: IC50) | pIC50 ([7]; read-out: IC50)
1 | Br.COc1c(O)ccc2c1-c1c3c(cc4c1[C@H](C2)NCC4)OCO3 | 91.8 | 60 | 0 | 91.6 |  |  |  |  |  | 
2 | COc1c(O)ccc2c1-c1c(OC)c(O)cc3c1[C@H](C2)[N+](C)(C)CC3.[I-] | 90.7 | 83.7 | 89.8 | 85.5 |  |  |  |  |  | 
3 | COc1cc2c3c(c1O)-c1ccccc1CC3N(C)CC2 (configuration not stated) | 86.3 | 0 | 0 | 51.7 | 3.77 |  |  |  |  | 
4 | CC(=O)Oc1ccccc1C(=O)O [ASPIRIN] | 77.9 | 0 | 87.4 | 90.4 |  | 3.78 | < 3.00 | < 3.00 |  | 
5 | CN1CCc2cc3c(c4c2[C@H]1Cc1ccccc1-4)OCO3.Cl [REMERINE HYDROCHLORIDE] | 67.2 | 0 | 0 | 27.8 | 3.71 |  |  |  | 4.05 | 
6 | COc1cc2c(cc1OC)-c1c3c(cc4c1[C@H](C2)N(OC)CC4)OCO3 | 86.8 | 80.9 | 87.3 | 92.2 |  |  |  |  |  | 
7 | COc1ccc2c(c1OC)-c1c(OC)c(OC)cc3c1[C@H](C2)[N+](C)(C)CC3.[I-] [ISOCORYDINE METHIODIDE] | 90.2 | 71 | 87.9 | 85.6 |  |  |  |  |  | 
8 | COc1ccc2c(c1OC)-c1c(OC)c(O)cc3c1[C@H](C2)N(C)CC3 | 89.4 | 86.5 | 83.5 | 78.6 |  |  |  |  |  | 
9 | COc1cc2c(cc1OC)C(O)C1c3c(c(OC)c(OC)c(OC)c3-2)CCN1C (configuration not stated) | 34.5 | 0 | 0 | 0 | 4.15 |  |  |  |  | 4.93
10 | COc1ccc2c(c1OC)-c1c3c(cc4c1[C@H](C2)[N+](C)(C)CC4)OCO3.[I-] | 88.6 | 89 | 77.6 | 83.9 |  |  |  |  |  | 
11 | COc1cc2c(cc1OC)C(O)C1c3c(cc(OC)c(OC)c3-2)CCN1C (configuration not stated) | 78.3 | 21.8 | 12.7 | 0 |  |  |  |  |  | 4.28
12 | COc1cc2c(cc1O)C[C@H]1c3c(cc(OC)c(OC)c3-2)CC[N+]1(C)C.[I-] | 87.6 | 88.1 | 81.3 | 82.7 |  |  |  |  |  | 
13 | COc1c(O)ccc2c1-c1c(OC)c(O)cc3c1[C@H](C2)NCC3.Cl | 10.5 | 0 | 0 | 4 | 3.78 |  |  |  |  | 
14 | COc1cc2c3c(c1OC)-c1ccccc1C[C@@H]3NCC2 | 77.1 | 0 | 0 | 30.6 | 3.68 |  |  |  |  | 
15 | CC1=NN(c2ccc([N+](=O)[O-])cc2)C(=O)C1[N+](=O)[O-].COc1cc2c(cc1O)C[C@@H]1NCCc3cc(O)c(OC)c-2c31 | 92.1 | 0 | 4.6 | 79.3 | 3.83 |  |  |  |  | 
